In patent US20230285512A1, “COMPOSITIONS AND METHODS FOR TREATING MYOCARDIAL INFARCTION AND ISCHEMIA” (priority 2022, published 2023):
Entries after “also recorded” stand apart in the source; their conditions may differ.

Test system: HL-1 cardiomyocytes
Assay: In vitro hypoxia assay of HL-1 cardiomyocytes, live/dead
Type: cell-based
Procedure: To examine potential functional roles of these candidates, particularly on cellular apoptosis, the study next used an in vitro hypoxia assay of HL-1 CMs, in which cells were exposed to low oxygen (1%02) for 6 hours prior to treatment with recombinant forms of these proteins.
HL-1 cardiomyocytes (Sigma, cat. SCC065) were maintained in growth media consisting of 10% FBS in Claycomb Media (Sigma, cat. 51800C) supplemented with 10 mM norepinephrine (Sigma, cat. A0937) and […] L-glutamine (Gibco, cat. 25030081). Primary cardiac fibroblasts were isolated from Col1a1GFP/+ mice 2 months of age. Mice were injected with heparin prior to sacrifice and the heart collected. The tissue was then cut into 1-2 mm pieces and digested with Liberase Blendzyme TH and TM (Roche, cat. LIBTM-RO) in Hank's Balanced Salt Solution (HBSS) (Gibco, cat. 1417507) supplemented with DNAse I and polaxamer (10 mg/ml, Sigma, cat. 16758) in 37° C. for 1 h. […]
Fluorescent images were acquired with Leica fluorescence inverted microscope DMI6000B equipped with an EL6000 light source. […] Image quantification was performed using Imager s “threshold” and “analyze particles” functions. Assessment of live/dead was determined as the number of DAPI+ cells/HPF. EdU and pHH3 quantification were recorded as the number of EdU+ or pHH3+ nuclei over the total number of DAPI.

thymosin β4: Thymosin family protein Tmsb4x, recombinant form; human reference NP_066932 in Table 1
number of DAPI+ (dead) cells per field (1% O2 for 6 hours prior to treatment with recombinant protein): reduced; also recorded: protective role | cellular viability / toxicity (high doses (500 nM)): cellular toxicity
